Assay results published in patent US20020065314A1, “COMPOSITIONS AND METHOD FOR STIMULATING HAIR GROWTH” (priority 1995, published 2002).
Like-named read-outs stand apart in the source and are kept apart here. One block for each compound: values may come before it.

Key:
C57BL/KsJ db/+ mice = tested on: C57BL/KsJ db/+ mice
Procedure: The induction of hair loss following treatment with certain anticancer drugs, such as cyclophosphamide or doxorubicin, is well documented (A. Tierney & J. Taylor (1991) Nurs. Stand 5:29-31; R. R. Love, et al. (1989) Cancer 63:604-612; B. W. Cline (1984) Cancer Nurs. 7:221-228). The following experiment was performed to determine the effect of n-butyl cyanoacrylate on hair regrowth in mice pre-treated with cyclophosphamide or doxorubicin. Twenty mice of strain C57BL/KsJ db/+ were peritoneally injected with either cyclophosphamide in PBS (20 mg per kilogram of body weight) or Doxorubicin in PBS (2 mg per kilogram of body weight) for 10 consecutive days. Then a single 10 μl dose of n-butyl cyanoacrylate was applied topically to an area of the shaved dorsum of each animal. Control mice, which were injected with PBS alone, were treated similarly. The effects of hair regrowth were determined both by phototrichogram (macroscopic observation using photography) and by folliculogram (microscopic observation of histological changes in the treated and untreated skin).

[1] = tested on: C57BL/KsJ db/+ and C57BL/KsJ db/db mice; experiment: Effect of isobutyl cyanoacrylate on hair growth, topical; assay type: in vivo, mouse; conditions: for Hair growth: 10 μl cm^−2 topical
Procedure: The following experiment was performed to identify the effect of isobutyl cyanoacrylate, a structural analog of n-butyl cyanoacrylate, on hair growth. The shaved backs of C57BL/KsJ db/+ and C57BL/KsJ db/db mice were treated topically at a dose of 10 μl cm^−2 with either isobutyl cyanoacrylate (Sigma Chemical Co., St Louis, Mo.) or n-butyl cyanoacrylate.

[2] = tested on: C57BL/KsJ db/+ and C57BL/KsJ db/db mice; experiment: Effect of isobutyl cyanoacrylate on hair growth, topical; assay type: in vivo, mouse
hair growth = experiment: Hair growth stimulation by comparison agents; conditions: in vivo

Structure (SMILES): O=P1(N(CCCl)CCCl)NCCCO1 (stereo not shown) [cyclophosphamide, reference compound]
pigmentation of new hair and skin in pre-treated animals (C57BL/KsJ db/+ mice; pre-treatment with the anticancer drug, then topical n-butyl cyanoacrylate): lack of pigmentation in the new growth hairs

pigmentation of new hair and skin in pre-treated animals (C57BL/KsJ db/+ mice; mouse, in vivo): normal pigmentation
Structure (SMILES): COc1cccc2c1C(=O)c1c(O)c3c(c(O)c1C2=O)C[C@@](O)(C(=O)CO)C[C@@H]3O[C@H]1C[C@H](N)[C@H](O)[C@H](C)O1 [doxorubicin, reference compound]

Structure (SMILES): C=C(C#N)C(=O)OCC(C)C [isobutyl cyanoacrylate]
Hair growth ([1]; C57BL/KsJ db/+): 3+ (high hair regeneration with an area larger than 50% of the treated area) | Hair growth ([1]; C57BL/KsJ db/db): 3+ (high hair regeneration with an area larger than 50% of the treated area) | hair growth response compared with that of n-butyl cyanoacrylate ([1]; both strains): nearly identical | time at which hair growth was visible ([1]; both strains, post treatment): 8 to 12 days | time at which hair reached full length ([1]; both strains, post treatment): 15 to 18 days | time at which many new hair follicles occurred in treated area ([1]; both strains, post treatment): 2 to 3 days | response compared with hair growth induced by n-butyl cyanoacrylate (mice and rats; mice and rats): very similar | hair growth in normal intact skin, in skin of animals pre-treated with anticancer drugs, and at edges of wounds (mice and rats; two species (rat and mouse), seven strains of mouse): stimulate hair growth | hair growth on dorsum (photograph) ([2]; C57BL/KsJ +/+ mouse, 19 days post application): “T” pattern of hair growth | hair growth response to formulation with about 0.01% monomethyl hydroquinone ([2]; several strains of mice): positive response

Structure (SMILES): CCCCOC(=O)CCCCCCCCC(=O)OCCCC [sebacic acid dibutyl ester]
stimulation of hair growth (hair growth): not effective in stimulating hair growth
